The source of these data is patent US7982043B2, “Protein tyrosine kinase enzyme inhibitors” (Wyeth LLC, priority 2003, dated 2011).

One may read the IC50 as the concentration that gives 50% inhibition. By pIC50 is commonly meant the negative decadic logarithm of the IC50, by convention in mol/L.

One assay deals with 3T3 cells. In words: Cell proliferation assay (SRB), 3T3. It counts as cell-based, mouse. The following applies: for IC50: NIH3T3, 48 h, read-out: CELL IC50 3T3.
Assay [1] has as its target mouse fibroblast cell line transfected with the HER-2 oncogene (3T3/neu) (UniProt P04626, cells depend on it, species not given). In words: Cell proliferation assay (SRB), 3T3/neu. It counts as cell-based.
A further assay concerns SK-Br-3 cells. In words: Cell proliferation assay (SRB), SK-Br-3. The following applies: for IC50: Homo sapiens, SK-BR-3, 48 h, read-out: CELL IC50 SKBr3. It counts as cell-based.
The next assay deals with BT474 cells. In words: Cell proliferation assay (SRB), BT474. The class given is cell-based, human. The following applies: for IC50: Homo sapiens, BT-474, 144 h, read-out: CELL IC50 BT474.
The subject of a further assay is SW620 cells. In words: Cell proliferation assay (SRB), SW620. The following applies: for IC50: Homo sapiens, SW-620, 48 h, read-out: CELL IC50 SW620. The class given is cell-based.
Another assay addresses T1, Her-2 (Homo sapiens, UniProt P04626).
T1 construct: For Her-2 and EGFR phosphorylation assays, cells (BT474 and A431, respectively) were incubated with various concentrations of compound; endogenous in cells; host or cells: BT474
Description: Her-2 receptor phosphorylation in BT474 cells (immunoblot). It counts as cell-based. Particulars: Her-2 phosphorylation, 3 hours at 37° C., immunoblot; for IC50: read-out: IC50 receptor phosphorylation BT474 (converted). (A western blot detects proteins with antibodies after separation by electrophoresis.)

A further assay relates to MDA-MB-435 cells. In words: Cell proliferation assay (SRB), MDA-MB-435. The following applies: for IC50: Homo sapiens, MDA-MB-435, 48 h, read-out: CELL IC50 MDA-MB-435. It counts as cell-based.
Assay [2] concerns HER-2 overexpressing human xenograft models. In words: HER-2 overexpressing human xenograft models (overall). Particulars: mouse, in vivo. The class given is in vivo, mouse.
The test system of the next assay is A431 cells. In words: Cell proliferation assay (SRB), A431. The class given is cell-based. The following applies: Homo sapiens, A-431, 48 h, read-out: CELL IC50 A431.
The subject of assay [3] is xenografts of 3T3/neu cells. In words: 3T3/neu tumor xenograft in nude mice. It counts as in vivo, mouse. Particulars: day 21.
For assay [4], the target named is T2, recombinant cytoplasmic domain of HER-2 (Homo sapiens, UniProt P04626).
T2 construct: In a cell-free autophosphorylation assay using the recombinant cytoplasmic domain of HER-2
In words: Cell-free autophosphorylation kinase assay (ELISA), HER-2. It counts as biochemical.

For a further assay, the system named is BT474 xenografts. In words: BT474 tumor xenograft in nude mice. It counts as in vivo, mouse. Particulars: day 21.
Where [5] appears, read: EGFR −, Her-2 +++, 2 days, SRB, read-out: CELL IC50 3T3/NEU (converted).

pIC50: −log10 of the molar value. In brackets after ≈: the same amount, converted by molar mass. Like-named read-outs stand apart in the source and are kept apart here.

T1 sequence (P04626 23-1255): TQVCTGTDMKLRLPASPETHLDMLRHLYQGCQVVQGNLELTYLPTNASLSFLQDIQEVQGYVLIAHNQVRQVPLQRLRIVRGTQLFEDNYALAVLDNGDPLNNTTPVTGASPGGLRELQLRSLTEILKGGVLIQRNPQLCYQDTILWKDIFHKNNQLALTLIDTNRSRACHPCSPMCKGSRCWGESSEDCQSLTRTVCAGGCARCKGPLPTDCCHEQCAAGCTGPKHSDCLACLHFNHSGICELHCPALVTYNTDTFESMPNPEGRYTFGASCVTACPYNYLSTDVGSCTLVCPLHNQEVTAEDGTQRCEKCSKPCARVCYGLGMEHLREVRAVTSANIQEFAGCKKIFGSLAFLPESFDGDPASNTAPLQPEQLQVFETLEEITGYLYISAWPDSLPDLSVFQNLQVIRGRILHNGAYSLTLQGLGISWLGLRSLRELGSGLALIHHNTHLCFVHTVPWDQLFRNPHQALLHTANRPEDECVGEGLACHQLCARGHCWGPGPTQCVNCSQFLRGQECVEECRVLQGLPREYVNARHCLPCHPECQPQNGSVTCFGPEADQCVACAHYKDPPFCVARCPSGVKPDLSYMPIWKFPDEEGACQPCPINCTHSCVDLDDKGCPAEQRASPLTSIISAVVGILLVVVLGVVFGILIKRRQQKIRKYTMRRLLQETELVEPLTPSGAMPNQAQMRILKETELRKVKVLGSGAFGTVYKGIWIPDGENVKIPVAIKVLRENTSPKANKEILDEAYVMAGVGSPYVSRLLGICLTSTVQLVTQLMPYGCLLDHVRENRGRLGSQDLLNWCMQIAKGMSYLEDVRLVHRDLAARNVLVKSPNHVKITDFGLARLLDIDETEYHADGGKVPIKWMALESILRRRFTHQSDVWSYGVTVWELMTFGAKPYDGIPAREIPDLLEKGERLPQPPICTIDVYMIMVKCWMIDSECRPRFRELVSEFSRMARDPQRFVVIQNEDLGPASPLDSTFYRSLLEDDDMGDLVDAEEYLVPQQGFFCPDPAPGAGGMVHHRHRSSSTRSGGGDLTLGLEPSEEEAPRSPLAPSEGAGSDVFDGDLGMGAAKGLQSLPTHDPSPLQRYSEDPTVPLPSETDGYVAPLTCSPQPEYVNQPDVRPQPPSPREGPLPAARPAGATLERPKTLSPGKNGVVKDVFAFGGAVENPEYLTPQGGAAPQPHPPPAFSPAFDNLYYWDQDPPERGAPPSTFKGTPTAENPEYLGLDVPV
T2 sequence (P04626 676-1255 limits assumed): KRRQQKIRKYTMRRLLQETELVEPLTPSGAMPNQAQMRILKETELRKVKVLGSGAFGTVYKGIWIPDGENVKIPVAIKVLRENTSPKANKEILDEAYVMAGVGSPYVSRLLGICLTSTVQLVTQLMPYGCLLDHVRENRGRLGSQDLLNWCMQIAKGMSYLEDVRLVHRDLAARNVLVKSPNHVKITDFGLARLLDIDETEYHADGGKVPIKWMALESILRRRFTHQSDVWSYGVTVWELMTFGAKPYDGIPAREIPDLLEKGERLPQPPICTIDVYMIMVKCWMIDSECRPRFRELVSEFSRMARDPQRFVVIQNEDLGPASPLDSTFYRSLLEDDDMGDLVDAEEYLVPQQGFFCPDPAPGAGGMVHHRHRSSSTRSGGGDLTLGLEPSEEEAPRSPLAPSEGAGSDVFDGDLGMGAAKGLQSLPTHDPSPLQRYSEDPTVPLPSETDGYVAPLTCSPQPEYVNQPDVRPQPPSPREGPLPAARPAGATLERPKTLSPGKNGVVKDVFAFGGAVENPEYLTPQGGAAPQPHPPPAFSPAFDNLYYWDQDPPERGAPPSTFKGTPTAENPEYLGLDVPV

As for `CCOc1cc2ncc(C#N)c(Nc3ccc(OCc4cccs4)c(Cl)c3)c2cc1NC(=O)/C=C/CN(C)C` [Example 76, (2E)-N-{4-[3-chloro-4-(2-thienylmethoxy)anilino]-3-cyano-7-ethoxy-6-quinolinyl}-4-(dimethylamino)-2-butenamide], the 50% inhibitory concentration (IC50) was 0.41 µg/mL with 3T3 cells (Mus musculus, EGFR −, Her-2 −, 2 days, SRB); 0.004 µg/mL (≈ 0.00712 µM) with SK-Br-3 cells (EGFR −, Her-2 +++, 2 days, SRB); 0.003 µg/mL (≈ 0.00534 µM) in the assay with BT474 cells (EGFR +, Her-2 +++, 6 days, SRB); 0.25 µg/mL (≈ 0.445 µM) in the assay on SW620 cells (EGFR −, Her-2 −, 2 days, SRB); 2.67 nM on Her-2; 0.77 µg/mL (≈ 1.37 µM) in the assay on MDA-MB-435 cells (EGFR −, Her-2 −, 2 days, SRB). Besides, in assay [1] (setting [5]), the GI50 is 6.94 nM.

Turning to `CCOc1cc2ncc(C#N)c(Nc3ccc(OCc4ccccn4)c(Cl)c3)c2cc1NC(=O)/C=C/CN(C)C` [Example 2, (E)-N-{4-[3-chloro-4-(2-pyridinylmethoxy)anilino]-3-cyano-7-ethoxy-6-quinolinyl}-4-(dimethylamino)-2-butenamide], the half-maximal inhibitory concentration (IC50) in the assay with 3T3 cells (Mus musculus) worked out at 0.39 µg/mL; in the assay on A431 cells it was 0.045 µg/mL (≈ 0.0808 µM); with SK-Br-3 cells it was 0.001 µg/mL (≈ 0.0018 µM); with BT474 cells, 0.0013 µg/mL (≈ 0.00233 µM); in the assay on SW620 cells, 0.44 µg/mL (≈ 0.79 µM); with MDA-MB-435 cells it was 0.44 µg/mL (≈ 0.79 µM). For the same molecule, the pIC50 in the assay with 3T3 cells (Mus musculus, NIH3T3, read-out: IC50 isogenic untransfected cells (3T3)) is 6.04 to 6.17. Further, the “MED in the HER-2 overexpressing human xenograft models” value in assay [2] is given as around 10 mg/kg/day. Further, the GI50 in assay [1] (read-out: CELL IC50 3T3/NEU, mouse fibroblast cell line transfected with the her-2 oncogene (3t3/neu)) was 3.23 nM. Also, the tumor growth inhibition in assay [3] (20 mg/kg/day PO) is reported as 53%; in assay [3] (40 mg/kg/day PO), 95%; in assay [3] (80 mg/kg/day PO), 98%. The “inhibition of the HER-2 enzyme (in words)” value in [4] is “potent inhibitors”. Also, the “maximum tumor growth inhibition” value in the assay on BT474 xenografts (10 mg/kg/day PO) is reported as 76%; in the assay with BT474 xenografts (40 mg/kg/day PO), 95%.

As for `CCOc1cc2ncc(C#N)c(Nc3ccc(F)c(Cl)c3)c2cc1NC(=O)C=CCN(C)C` [Example 20, 4-Dimethyl-but-2-enoic acid [4-(3-chloro-4-fluoro-phenylamino)-3-cyano-7-ethoxy-quinolin-6-yl]-amide], the “CELL IC50 3T3” value in the assay on 3T3 cells (EGFR −, Her-2 −, 2 days, SRB) was 0.26 µg/mL. For the same molecule, the “CELL IC50 SKBr3” value in the assay with SK-Br-3 cells (EGFR −, Her-2 +++, 2 days, SRB) was 0.0071 µg/mL. Also, the “CELL IC50 BT474” value in the assay with BT474 cells (EGFR +, Her-2 +++, 6 days, SRB) came out at 0.020 µg/mL. In addition, the “CELL IC50 SW620” value with SW620 cells (EGFR −, Her-2 −, 2 days, SRB) was 0.32 µg/mL. For the same molecule, the “inhibition of the HER-2 enzyme (in words)” value in assay [4] is recorded as “is not”. In assay [4] (autophosphorylation, ELISA), the “Enzyme IC50 HER-2” value is 0.58 µg/mL. Also, the “IC50 receptor phosphorylation BT474” value against Her-2 was 0.080 µg/mL (≈ 0.171 µM). In addition, in the assay with MDA-MB-435 cells (EGFR −, Her-2 −, 2 days, SRB), the “CELL IC50 MDA-MB-435” value amounted to 0.34 µg/mL.

Consider `COc1cc2ncc(C#N)c(Nc3ccc(Sc4nc(-c5ccccc5)cs4)c(Cl)c3)c2cc1NC(=O)/C=C/CN(C)C` [Example 58, (E)-N-(4-{3-chloro-4-[(4-phenyl-1,3-thiazol-2-yl)sulfanyl]anilino}-3-cyano-7-methoxy-6-quinolinyl)-4-(dimethylamino)-2-butenamide], for which the 50% inhibitory concentration (IC50) with A431 cells (EGFR +++, Her-2 +, 2 days, SRB) was 0.162 µg/mL (≈ 0.258 µM); in the assay on SK-Br-3 cells (EGFR −, Her-2 +++, 2 days, SRB), 0.005 µg/mL (≈ 0.00797 µM); with SW620 cells (EGFR −, Her-2 −, 2 days, SRB), 0.57 µg/mL (≈ 0.909 µM); at Her-2 it was 79700 to 797000 nM; in the assay on MDA-MB-435 cells (EGFR −, Her-2 −, 2 days, SRB) it was 0.23 µg/mL (≈ 0.367 µM). In addition, in assay [1] (setting [5]), the GI50 is 44.6 nM.
